Assays:
carbonic anhydrase II = conditions: ref WOMBAT (26); cited from earlier work
human 5-HT2A receptor = human 5-HT2A receptor (Homo sapiens, UniProt P28223); test: cell-based
σ1 receptor = conditions: read-out: Kd for σ1; cited from earlier work
hERG channel = conditions: cited from earlier work
5-HT1D receptor = 5-HT1D receptor (Homo sapiens, UniProt P28221); conditions: ref Supplementary Table 3; cited from earlier work
Histamine H4 receptor = Histamine H4 receptor (Homo sapiens, UniProt Q9H3N8); test: biochemical; type: binding
Histamine H4 receptor, sequence (Q9H3N8 whole entry, species assumed): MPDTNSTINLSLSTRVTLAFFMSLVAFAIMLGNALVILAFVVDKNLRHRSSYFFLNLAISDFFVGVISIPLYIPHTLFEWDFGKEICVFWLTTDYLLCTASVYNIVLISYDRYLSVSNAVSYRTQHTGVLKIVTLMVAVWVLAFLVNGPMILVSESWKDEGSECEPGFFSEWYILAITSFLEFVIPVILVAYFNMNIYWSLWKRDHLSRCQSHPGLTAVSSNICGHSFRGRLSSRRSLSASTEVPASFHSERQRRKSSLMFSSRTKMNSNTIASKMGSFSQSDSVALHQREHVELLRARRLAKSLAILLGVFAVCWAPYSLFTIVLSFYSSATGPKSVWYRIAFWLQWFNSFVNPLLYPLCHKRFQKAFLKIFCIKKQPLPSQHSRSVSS

[1] = average; cited from earlier work
adrenergic α2 = conditions: ref Supplementary Table 3; cited from earlier work
μ Opioid receptor = μ Opioid receptor (Homo sapiens, UniProt P35372); test: biochemical; type: binding
μ Opioid receptor, sequence (P35372 whole entry, species assumed): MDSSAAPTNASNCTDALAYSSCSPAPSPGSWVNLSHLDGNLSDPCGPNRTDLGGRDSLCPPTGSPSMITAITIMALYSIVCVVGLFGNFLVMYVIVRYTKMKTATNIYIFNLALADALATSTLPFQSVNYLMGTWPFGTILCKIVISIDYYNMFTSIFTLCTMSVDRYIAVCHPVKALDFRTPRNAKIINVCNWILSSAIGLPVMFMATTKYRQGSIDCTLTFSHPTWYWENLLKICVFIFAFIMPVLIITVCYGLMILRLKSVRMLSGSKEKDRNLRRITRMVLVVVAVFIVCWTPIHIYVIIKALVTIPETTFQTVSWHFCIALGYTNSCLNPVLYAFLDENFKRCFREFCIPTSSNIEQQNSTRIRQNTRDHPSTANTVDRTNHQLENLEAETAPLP

α2A adrenergic receptor = target: T1, α2A adrenergic receptor (Homo sapiens, UniProt P08913); test: Radioligand competition binding, α2A
T1 sequence (P08913 1-465): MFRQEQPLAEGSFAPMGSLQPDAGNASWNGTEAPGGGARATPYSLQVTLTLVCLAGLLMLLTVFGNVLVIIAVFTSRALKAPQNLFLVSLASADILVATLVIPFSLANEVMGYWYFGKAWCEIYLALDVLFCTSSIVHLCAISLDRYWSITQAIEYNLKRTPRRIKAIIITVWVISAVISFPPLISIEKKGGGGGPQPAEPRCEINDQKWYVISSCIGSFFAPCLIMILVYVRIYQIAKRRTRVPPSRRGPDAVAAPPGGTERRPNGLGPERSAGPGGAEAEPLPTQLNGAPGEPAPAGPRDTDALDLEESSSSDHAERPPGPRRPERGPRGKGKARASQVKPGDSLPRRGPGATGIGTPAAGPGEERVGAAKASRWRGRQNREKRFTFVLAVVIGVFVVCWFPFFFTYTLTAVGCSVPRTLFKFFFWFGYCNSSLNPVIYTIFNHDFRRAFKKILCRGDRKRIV

5-HT1D receptor, sequence (P28221 whole entry): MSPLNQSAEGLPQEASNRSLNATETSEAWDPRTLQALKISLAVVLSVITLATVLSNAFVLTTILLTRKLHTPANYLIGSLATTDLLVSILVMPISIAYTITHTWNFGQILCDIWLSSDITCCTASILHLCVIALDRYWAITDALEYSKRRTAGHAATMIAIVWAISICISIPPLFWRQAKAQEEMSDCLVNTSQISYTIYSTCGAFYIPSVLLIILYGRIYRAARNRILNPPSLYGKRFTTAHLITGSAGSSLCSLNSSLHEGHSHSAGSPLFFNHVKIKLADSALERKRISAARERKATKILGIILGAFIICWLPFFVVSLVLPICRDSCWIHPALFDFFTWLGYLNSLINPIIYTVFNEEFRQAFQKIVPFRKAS
human 5-HT2A receptor, sequence (P28223 whole entry): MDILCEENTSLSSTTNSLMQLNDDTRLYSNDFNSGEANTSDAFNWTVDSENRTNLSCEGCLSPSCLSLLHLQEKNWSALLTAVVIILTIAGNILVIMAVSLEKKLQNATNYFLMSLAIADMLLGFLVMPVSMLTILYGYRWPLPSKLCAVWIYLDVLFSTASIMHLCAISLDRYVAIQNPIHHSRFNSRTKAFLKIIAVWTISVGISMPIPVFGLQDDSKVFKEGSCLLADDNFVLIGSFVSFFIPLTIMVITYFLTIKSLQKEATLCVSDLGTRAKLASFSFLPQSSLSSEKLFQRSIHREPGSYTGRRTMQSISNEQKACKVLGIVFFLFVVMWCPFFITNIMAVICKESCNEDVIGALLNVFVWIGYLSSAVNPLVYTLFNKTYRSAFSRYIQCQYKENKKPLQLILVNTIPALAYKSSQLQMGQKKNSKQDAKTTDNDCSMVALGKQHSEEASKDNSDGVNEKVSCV

CCN[C@H]1CN(CCCOC)S(=O)(=O)c2sc(S(N)(=O)=O)cc21 [Azopt, brinzolamide]
binds carbonic anhydrase II at (carbonic anhydrase II): 3 nM

CN(C)CCc1c[nH]c2ccccc12 [DMT, N,N-dimethyltryptamine]
EC50 (human 5-HT2A receptor): 0.118 ± 0.029 µM | Kd (σ1 receptor): 14.8 µM

O=c1[nH]c2ccccc2n1CCCN1CCC(n2c(=O)[nH]c3cc(Cl)ccc32)CC1 [Motilium]
IC50 (hERG channel): 5 µM

CCCN1C[C@H](CSC)C[C@@H]2c3cccc4[nH]cc(c34)C[C@H]21 [Permax, pergolide]
reported to bind the 5-HT1D receptor at (5-HT1D receptor): 13 nM

CC(C)Nc1cccnc1N1CCN(C(=O)c2cc3cc(NS(C)(=O)=O)ccc3[nH]2)CC1 [Rescriptor, Delavirdine]
Ki (Histamine H4 receptor): 5.3 µM | steady-state plasma concentration Cmin [1]: 15 µM

CCN(CC)C(=O)N[C@H]1C=C2c3cccc4[nH]cc(c34)C[C@H]2N(C)C1 [Revanil, lisuride]
reported to bind adrenergic α2 at (adrenergic α2): 0.055 nM

CC(C(O)c1ccc(O)cc1)N1CCC(Cc2ccccc2)CC1 (stereo not shown) [Vadilex, Ifenprodil]
Ki (μ Opioid receptor): 1.4 µM

COc1cc2c(cc1OC)C1CC(=O)C(CC(C)C)CN1CC2 (stereo not shown) [Xenazine]
Ki (α2A adrenergic receptor): 0.96 µM

Reference: publication PMC2784146 (Nature, 2009)
